Source: the supplement of paper PMC10307832

Assays:
Assay in all cases: relative viability (nuclei count vs DMSO), 5 days (fraction); higher = more cells survive
AZD1208 + Navitoclax = compound: N[C@@H]1CCCN(c2c(/C=C3\SC(=O)NC3=O)cccc2-c2ccccc2)C1 [AZD1208] + CC1(C)CCC(c2ccc(Cl)cc2)=C(CN2CCN(c3ccc(C(=O)NS(=O)(=O)c4ccc(N[C@H](CCN5CCOCC5)CSc5ccccc5)c(S(=O)(=O)C(F)(F)F)c4)cc3)CC2)C1 [Navitoclax] (partner 0.5 µM)
Summary of the method: (§1)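 After 5 days of treatment, lung cancer cells in 1536-well plates were fixed and stained in a single step (final 0.05% Triton X-100, 1% formaldehyde, 1 ug/ml Hoechst) and their nuclei counted on 4× images. Treatment had been applied by pin tool the day after seeding as one drug alone or as a fixed anchor-drug dose with five library-drug doses (not always all listed) in √10 steps. Relative viability is the nuclei count of treated wells divided by that of vehicle wells, and values are medians of duplicate plates.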

AZD1208 + Trametinib = compound: N[C@@H]1CCCN(c2c(/C=C3\SC(=O)NC3=O)cccc2-c2ccccc2)C1 [AZD1208] + CC(=O)Nc1cccc(-n2c(=O)n(C3CC3)c(=O)c3c(Nc4ccc(I)cc4F)n(C)c(=O)c(C)c32)c1 [Trametinib] (partner 0.02 µM)
Summary of the method: as §1

XMD14-99 + Foretinib = compound: CN1CCN(CC1)C2=CC(=C(C=C2)NC3=NC(=C(S3)C(=O)C4=C(C=CC=C4Cl)Cl)N)OC [XMD14-99] + COc1cc2c(Oc3ccc(NC(=O)C4(C(=O)Nc5ccc(F)cc5)CC4)cc3F)ccnc2cc1OCCCN1CCOCC1 [Foretinib] (partner 0.25 µM)
Summary of the method: as §1

XMD14-99 + Vorinostat = compound: CN1CCN(CC1)C2=CC(=C(C=C2)NC3=NC(=C(S3)C(=O)C4=C(C=CC=C4Cl)Cl)N)OC [XMD14-99] + O=C(CCCCCCC(=O)Nc1ccccc1)NO [Vorinostat] (partner 1 µM)
Summary of the method: as §1

Cell Line	relative viability (AZD1208 + Navitoclax; first compound 0.08 µM)	relative viability (AZD1208 + Navitoclax; first compound 0.253 µM)	relative viability (AZD1208 + Navitoclax; first compound 0.8 µM)	relative viability (AZD1208 + Navitoclax; first compound 2.53 µM)	relative viability (AZD1208 + Navitoclax; first compound 8 µM)	relative viability (AZD1208 + Trametinib; first compound 0.08 µM)	relative viability (AZD1208 + Trametinib; first compound 0.253 µM)	relative viability (AZD1208 + Trametinib; first compound 0.8 µM)	relative viability (AZD1208 + Trametinib; first compound 2.53 µM)	relative viability (AZD1208 + Trametinib; first compound 8 µM)	relative viability (XMD14-99 + Foretinib; first compound 0.08 µM)	relative viability (XMD14-99 + Foretinib; first compound 0.8 µM)	relative viability (XMD14-99 + Foretinib; first compound 2.53 µM)	relative viability (XMD14-99 + Foretinib; first compound 8 µM)	relative viability (XMD14-99 + Vorinostat; first compound 0.08 µM)	relative viability (XMD14-99 + Vorinostat; first compound 0.8 µM)	relative viability (XMD14-99 + Vorinostat; first compound 2.53 µM)	relative viability (XMD14-99 + Vorinostat; first compound 8 µM)
NCI-H1915	0.794	0.797	0.839	0.832	0.825	0.271	0.288	0.247	0.277	0.232	1.06	1.02	0.961	0.859	0.519	0.491	0.486	0.377
NCI-H1944	1.05	1.01	0.977	1.01	0.832	0.402	0.433	0.359	0.328	0.283	0.886	0.841	0.7	0.631	0.547	0.586	0.486	0.449
NCI-H1975	1.19	1.05	1.14	1.01	1.09	0.304	0.341	0.283	0.36	0.249	1.01	0.92	0.924	0.817	0.675	0.673	0.612	0.475
NCI-H1993	–	0.824	0.606	0.812	0.691	0.496	0.515	0.447	0.477	0.376	0.804	0.674	0.643	0.595	0.595	0.889	0.793	0.714
NCI-H2009	1.2	1.14	1.12	1.21	1.15	0.264	0.249	0.256	0.224	0.207	1.21	1.25	1.14	1.12	0.815	0.727	0.63	0.423
NCI-H2023	1.02	0.99	0.977	0.934	0.959	0.601	0.55	0.416	0.506	0.394	0.986	0.842	0.704	0.698	0.572	0.648	0.732	0.363
NCI-H2085	1.02	1.29	1.13	1.14	1.02	0.55	0.475	0.558	0.446	0.531	0.915	0.959	0.704	0.551	0.768	0.788	0.768	0.613
NCI-H2087	1.05	1.07	1.03	0.91	0.836	0.219	0.167	0.159	0.227	0.193	1.05	0.86	0.746	0.569	0.617	0.668	0.864	0.449
NCI-H2126	0.902	0.753	0.812	0.788	0.731	0.576	0.524	0.498	0.467	0.434	1.19	1.13	1.2	0.832	0.694	0.806	0.694	0.579
